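Assay format: 96-well plates, 48-hour exposure. Here, GI50 denotes the concentration required for 50% inhibition of growth. TGI: total growth inhibition.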
Test system: MDA-MB-468 breast
Test: inhibition of tumour cell growth, NCI panel, 48 h

Structure (SMILES)	GI50	TGI
COC(=O)C1=Nc2ccc(F)cc2/C1=C/c1sc(=S)[nH]c1O	0.354 µM	2.95 µM
CS(=O)(=O)c1ccc2c(c1)c1c(n2C(=O)c2ccc(Cl)cc2)CCCC1	2.09 µM	> 100 µM
Cc1ccc(-c2nc(C(Cl)Cl)nc3cc(C)nn23)cc1	0.259 µM	0.957 µM
CN(C)CCS(=O)(=O)Nc1cc(-c2ccc3ncnc(Nc4ccc(F)c(Cl)c4)c3c2)cnc1Cl	0.133 µM	0.449 µM
CCN(CC)Cc1cc(Nc2cc(C(F)(F)F)c(C#N)c3nc4ccccc4n23)ccc1O	0.228 µM	3.69 µM
CCN(CCNc1ccc(C)c2sc3cc(Cl)ccc3c(=O)c12)CC(C)(C)O	3.49 µM	10.4 µM
O=C(Nc1cccc(-n2cc(-c3ccncc3)c(-c3ccc(O)c(Cl)c3)n2)c1)Nc1ccc(Cl)c(Cl)c1	1.96 µM	6.65 µM
C=CC[PH+](c1ccccc1)c1ccccc1.C=CC[PH+](c1ccccc1)c1ccccc1.[Pt+2].[S-]c1ncccn1.[S-]c1ncccn1	3.06 µM	13.9 µM
COc1ncc2cc1NS(=O)(=O)c1cccc(c1)C(=O)NCC1=CC=C(S1)c1ncnc3c1SC2=C3C	0.072 µM	0.234 µM
O=S(=O)(NCCCNc1nccc(-c2c(-c3cccc(F)c3)nc3occn23)n1)c1cccc2ccccc12	4.86 µM	> 100 µM
CCc1c(C#N)c(SC(C(N)=O)c2ccccc2)nc(N2CCC(N)CC2)c1C#N (configuration not stated)	3.53 µM	16.4 µM
O=C(Nc1nc2c(s1)CCc1c-2c(Br)n(Cc2ccccc2)c1Br)c1ccccc1	8.28 µM	> 100 µM
CCN(CC)CCS(=O)(=O)CCNc1ccnc2cc(Cl)ccc12	0.711 µM	1.91 µM
Cc1ccc(C(=O)N2C/C(=C/c3ccccc3)C(=O)/C(=C/c3ccccc3)C2)cc1	2.23 µM	10.7 µM
Cc1ccc(NC2=CC(=O)C(=O)c3ccccc32)c(C)c1	2.56 µM	8.61 µM
COc1cc(/C=N/Nc2ccnc3cc(Cl)ccc23)cc(OC)c1O	1.65 µM	3.28 µM
Cc1nn2c(-c3nc4cc(Cl)c(Cl)cc4[nH]3)c(-c3ccc(F)cc3)nc2s1	> 29.1 µM	> 100 µM
CC(C)C/C(=N\NC(=O)c1ccncc1)c1cc(Cl)ccc1O	0.288 µM	1.97 µM
CCN(CC)C(=S)SSCCO	15 µM	28.9 µM
COc1cc(OC)c(/C=C/C(=O)c2c(N)cc(OC)cc2OC)c(OC)c1	0.322 µM	7.26 µM
CCN(CC)CCCNc1c2ccc(Cl)cc2nc2ccc(OC)cc12	0.0711 µM	2.71 µM
Nc1ccn([C@@H]2S[C@H](CO)[C@@H](O)[C@@H]2F)c(=O)n1	3.25 µM	> 88.6 µM

Structure (SMILES)	GI50	TGI
Nc1c(C(=O)Nc2ccccn2)sc2nc3c(cc12)CCCCCC3	0.435 µM	7.13 µM
CCOC(=O)c1cc2cc(OCc3ccccc3)ccc2[nH]1	> 100 µM	> 100 µM
Cc1cc(-c2ccco2)cc(C)c1/C=C/c1cncc(-c2nn[nH]n2)c1	> 25 µM	> 25 µM
Cc1n(Cc2ccc3ccccc3n2)cc[n+]1Cc1ccc2ccccc2c1	0.27 µM	1.58 µM
CN(c1ccc(NC(=O)NCCN2CCOCC2)cc1)c1ccnc(Nc2ccc(CS(C)(=O)=O)cc2)n1	8.21 µM	> 25 µM
Cc1ccc(O)cc1Nc1ccnc2cc(-c3ccccn3)ccc12	0.736 µM	3.57 µM
CC1(C)N=C(N)N=C(N)N1c1ccc(OCCCCNC(=O)Nc2cccc(S(=O)(=O)F)c2)c(Cl)c1	3.47 µM	> 100 µM
CN(C)c1ccc2c(c1)OC(N)=C(C#N)C2c1ccc2c(c1)CCCN2C (configuration not stated)	1.62 µM	42.5 µM
O=C(/C=C/c1cccc(Oc2ccc(Cl)cc2)c1)c1ccccc1	101 µM	338 µM
N=C(N)c1ccc(OCCCCCOc2ccc(C(=N)N)cc2)cc1	0.466 µM	5.83 µM
O=C1C2C(C(=O)N1CC[Se][Se]CCN1C(=O)C3C(C1=O)[C@H]1C=C[C@@H]3C1)[C@H]1C=C[C@@H]2C1 (some centres not stated)	0.324 µM	1.32 µM
Oc1ccc(-c2[nH]c3ccccc3c2-c2nc3ccccc3o2)cc1	1.36 µM	5.98 µM
Oc1c(I)cc(Cl)c2cccnc12	2.05 µM	5.13 µM
C=C(C)[C@@H]1CC[C@]2(C(=O)n3ccnc3)CC[C@]3(C)[C@H](CC[C@@H]4[C@@]5(C)CCCNC(C)(C)[C@@H]5CC[C@]43C)[C@@H]12	1.9 µM	3.53 µM
Nc1n[nH]c2ccc([C@@H]3Nc4c(F)cc5[nH]ncc5c4[C@H]4C5CCC(C5)[C@@H]34)cc12 (some centres not stated)	0.116 µM	0.621 µM
OC(c1cc(-c2ccc(Cl)cc2)nc2c(Cl)cccc12)C1CCCCN1 (configuration not stated)	1.74 µM	3.26 µM
N#Cc1cccc(C2C3=C(COC3=O)N(CCO)c3cc4c(cc32)CCC4)c1 (configuration not stated)	0.115 µM	–
CC/C(=C(/c1ccc(/C=C/C(=O)O)cc1)c1ccc2[nH]ncc2c1)c1ccc(F)cc1Cl	15.1 µM	42.8 µM
CCOc1cc2c(cc1O)CC[C@@H]1[C@@H]2CC[C@]2(C)[C@@H](O)CC[C@@H]12	4.96 µM	31.8 µM
CCc1ccc(C2=NN(c3ccc(S(C)(=O)=O)cc3)C(=O)CC2)cc1	4.43 µM	43.7 µM
Cc1ccccc1CNc1c2ccccc2nc2ccccc12	1.88 µM	4.89 µM
CCN(CC)C(=O)CCCCCn1c2ccccc2c2c3c(c4c5ccccc5[nH]c4c21)C(=O)N(O)C3=O	5.79 µM	> 100 µM
